Measured values taken from the NIST ThermoML archive (doi:10.1021/je030191w).

Columns and labels:
[1] = 101 kPa, Liquid
[2] = xn = mol fraction of the nth substance listed; conditions: 101 kPa, Liquid, x1 = 1

CCn1cc[n+](C)c1.F[B-](F)(F)F [1-ethyl-3-methylimidazolium tetrafluoroborate]
[1]
Conditions | mass density [kg/m3] | viscosity [mPa·s]
293.15 K | 1340.7 | 45.29
298.15 K | 1336.7 | 37.19
303.15 K | 1332.9 | 31.36
308.15 K | 1329.6 | 25.56
313.15 K | 1325.9 | 21.54
318.15 K | 1322.2 | 18.84
323.15 K | 1319.5 | 15.9

O [water] + CCn1cc[n+](C)c1.F[B-](F)(F)F
[2]
Conditions | mass density [kg/m3] | viscosity [mPa·s]
293.15 K | – | 1.002
298.15 K | – | 0.89
303.15 K | – | 0.798
308.15 K | – | 0.719
313.15 K | – | 0.653
318.15 K | 990.1 | 0.599
323.15 K | 988 | 0.547
